# Measured values published in patent US20020061836A1, “Methods for altering SXR activation using peptide mimetic HIV protease inhibitor SXR ligands” (priority 2000, published 2002).
# Read-outs that look alike come from different tables or passages of the source.
# Tests used:
# [1] = target: T1, human SXR ligand binding domain (Homo sapiens, UniProt O75469); experiment: Gal-L-SXR (Gal-SXR) Gal4 reporter transient transfection assay in CV-1 cells; conditions: CV-1 cells; for activation of Gal-L-SXR chimeric receptor: 10 μM compound (LG268 100 nM), about 24 h
# T1 sequence (O75469 107-434 limits assumed): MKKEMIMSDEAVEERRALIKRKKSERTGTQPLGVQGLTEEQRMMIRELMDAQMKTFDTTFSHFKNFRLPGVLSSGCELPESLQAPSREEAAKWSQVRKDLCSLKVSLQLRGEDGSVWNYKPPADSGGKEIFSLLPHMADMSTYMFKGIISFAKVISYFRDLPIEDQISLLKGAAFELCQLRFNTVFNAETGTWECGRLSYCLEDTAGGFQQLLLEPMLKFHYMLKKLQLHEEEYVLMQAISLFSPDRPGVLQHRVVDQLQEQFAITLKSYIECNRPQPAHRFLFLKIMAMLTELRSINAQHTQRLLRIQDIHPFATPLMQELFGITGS
# Description: Use of a standard model heterologous cell system to reconstitute SXR agonist and antagonist responsiveness allows SXR activity to be monitored in the absence of the metabolic events which may obscure the process being tested. Any suitable heterologous cell system may be used to test the activation of potential or known SXR nuclear receptor ligands, as long as the cells are capable of being transiently transfected with the appropriate DNA which expresses receptors, reporter genes, response elements, and the like. Cells which constitutively express one or more of the necessary genes may be used as well. Cell systems that are suitable for the transient expression of mammalian genes and which are amenable to maintenance in culture are well known to those skilled in the art. […] Suitable reporter gene constructs are well known to skilled workers in the fields of biochemistry and molecular biology. Activity of the reporter gene can be conveniently normalized to the internal control and the data plotted as fold activation relative to untreated cells.
# (§1) The Gal4 reporter activity was normalized to the internal β-galactosidase control and the data plotted as fold activation relative to untreated cells. All transfections contained the Gal4 reporter and a β-galactosidase expression vector as an internal control.
# (§2) Izbicka et al., Ann. Oncol.
# (§3) Gal-PXR containing the ligand binding domain of mouse PXR (#AF031814) was obtained from Bruce Blumberg.
# Transient Transffection Assays—CV-1 cells were grown and transfected as described.
# [2] = target: mouse PXR (Mus musculus, UniProt O54915); conditions: 10 μM
# Experimental: as §3
# (§4) After 24 hour exposure to the compounds, total RNA was prepared and analyzed by northern analysis using probes for MRP2 and the GAPDH control. […] CV-1 cells were transiently transfected with a Gal4 reporter and a vector expressing Gal4-fused to the ligand binding domain of human SXR (Gal-SXR).
# CV-1 cells were transiently transfected with Gal-SXR as in FIG. 21 above. […] Fold activation was determined relative to untreated cells. […] CV-1 cells were transiently transfected with Gal-PXR as in FIG. 21 above. […] FIG. 26: Coactivator recruitment by various HIV protease inhibitors SXR. […] Specific binding was measured as described in the Materials and Methods. Error bars indicate the range of duplicate data points.
# [3] = test system: LS180 human colon cancer cells; experiment: [14C]-paclitaxel efflux from pretreated LS180 cells; format: cell-based; conditions: LS180 cells induced 48 hours with 10 μM paclitaxel, 10 μM docetaxel or 100 nM LG268
# Experimental: Taxane-induced drug efflux was measured using pretreated LS180 human colon cancer cells. The rate of drug efflux was measured. […] Individual data points are the means of triplicate determinations, error bars represent standard deviation and the lines are lines of regression. The slope of each line (rate of efflux) was compared to the slope obtained in the control (untreated) cells using an analysis of covariance. […] The entire experiment was performed three times with similar results. […] The cells were then incubated in media supplemented with 10 μM [^14C]-paclitaxel (4.9 μCi/umol, Moravek Biochemicals, Brea, Calif.) for 15 minutes. The uptake of ^14C-paclitaxel reached maximum levels at 10-12 minutes (data not shown). After 15 minutes, the cells were then rapidly centrifuged through silicone oil to remove all traces of extracellular radioactivity, resuspended in fresh media, and cell counts determined. At multiple time points over the next 10 minutes, triplicate aliquots of the cell suspension (approx. 1×10^5 cells/aliquot) were again centrifuged through silicon oil and the radioactivity in the cell pellet measured by quench-corrected liquid scintillation counting. The rate of [^14C]-paclitaxel efflux was determined as the slope of the [^14C]-paclitaxel versus time plots using all data. The slope for each inducer was compared to the slope obtained in the control (untreated) cells using an analysis of covariance.
# [4] = target: T2, mouse PPARα (Mus musculus, UniProt P23204); experiment: Nuclear receptor specificity transfection assay; format: cell-based
# T2 construct: expressed in transfected cells; host or cells: CV-1
# T2 sequence (P23204 1-468): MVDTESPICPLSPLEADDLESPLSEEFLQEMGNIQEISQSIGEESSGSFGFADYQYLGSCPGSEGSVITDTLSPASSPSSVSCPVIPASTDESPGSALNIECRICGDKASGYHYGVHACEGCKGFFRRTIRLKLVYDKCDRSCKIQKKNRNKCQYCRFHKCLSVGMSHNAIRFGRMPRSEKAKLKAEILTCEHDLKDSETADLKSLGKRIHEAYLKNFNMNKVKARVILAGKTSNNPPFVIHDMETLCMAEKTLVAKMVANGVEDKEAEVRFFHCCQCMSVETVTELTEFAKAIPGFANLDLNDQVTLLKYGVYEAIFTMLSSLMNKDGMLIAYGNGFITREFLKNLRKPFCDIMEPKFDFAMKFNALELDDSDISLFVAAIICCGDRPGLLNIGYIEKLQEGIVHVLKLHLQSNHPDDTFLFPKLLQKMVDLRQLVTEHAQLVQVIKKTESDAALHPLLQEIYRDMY
# [5] = target: T3, mouse CARβ (Mus musculus, UniProt O35627); experiment: Nuclear receptor specificity transfection assay / LXRE×3-TK-luc reporter with CARβ in CV-1 cells; format: cell-based
# T3 sequence (O35627 1-358): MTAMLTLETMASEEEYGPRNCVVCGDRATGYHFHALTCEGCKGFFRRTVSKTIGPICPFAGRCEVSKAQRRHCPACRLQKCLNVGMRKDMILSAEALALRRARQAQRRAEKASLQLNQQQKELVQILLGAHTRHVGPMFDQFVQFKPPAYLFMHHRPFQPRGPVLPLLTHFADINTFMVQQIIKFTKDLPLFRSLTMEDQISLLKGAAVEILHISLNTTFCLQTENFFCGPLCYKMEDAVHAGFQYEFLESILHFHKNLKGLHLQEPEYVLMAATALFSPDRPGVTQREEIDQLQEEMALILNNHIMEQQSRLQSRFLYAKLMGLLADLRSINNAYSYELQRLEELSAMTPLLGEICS
# [6] = target: T4, mouse PPARδ (Mus musculus, UniProt P35396); experiment: Nuclear receptor specificity transfection assay; format: cell-based
# T4 construct: expressed in transfected cells; host or cells: CV-1
# T4 sequence (P35396 1-440): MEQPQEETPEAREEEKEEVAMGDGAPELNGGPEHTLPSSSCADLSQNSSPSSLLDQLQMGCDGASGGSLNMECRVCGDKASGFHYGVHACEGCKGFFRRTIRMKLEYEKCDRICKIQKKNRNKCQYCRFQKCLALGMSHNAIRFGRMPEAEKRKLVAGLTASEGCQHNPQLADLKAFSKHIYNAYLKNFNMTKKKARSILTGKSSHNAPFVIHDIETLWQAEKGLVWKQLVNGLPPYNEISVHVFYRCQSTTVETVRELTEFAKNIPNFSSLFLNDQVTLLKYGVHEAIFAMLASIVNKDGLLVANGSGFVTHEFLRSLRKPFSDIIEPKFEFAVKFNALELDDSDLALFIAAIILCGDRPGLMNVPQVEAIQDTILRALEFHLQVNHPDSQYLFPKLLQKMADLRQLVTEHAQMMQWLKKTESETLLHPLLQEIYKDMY
# [7] = target: T5, human LXRα (Homo sapiens, UniProt Q13133); experiment: Nuclear receptor specificity transfection assay; format: cell-based
# T5 construct: expressed in transfected cells; host or cells: CV-1
# T5 sequence (Q13133 1-447): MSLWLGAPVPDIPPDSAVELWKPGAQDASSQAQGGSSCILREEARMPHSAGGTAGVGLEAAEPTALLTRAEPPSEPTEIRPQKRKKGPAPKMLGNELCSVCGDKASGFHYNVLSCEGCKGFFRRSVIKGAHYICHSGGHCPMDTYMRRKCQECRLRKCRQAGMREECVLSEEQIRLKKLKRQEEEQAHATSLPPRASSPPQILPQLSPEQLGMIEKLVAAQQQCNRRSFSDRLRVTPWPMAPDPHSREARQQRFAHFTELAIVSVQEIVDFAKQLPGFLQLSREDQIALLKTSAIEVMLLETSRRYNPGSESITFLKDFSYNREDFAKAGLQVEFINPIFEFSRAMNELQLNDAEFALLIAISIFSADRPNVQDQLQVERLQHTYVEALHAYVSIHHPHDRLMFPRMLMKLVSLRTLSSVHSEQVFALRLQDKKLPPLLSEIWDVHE
# [8] = target: T6, human RXRα ligand binding domain (Homo sapiens, UniProt P19793); experiment: Gal-L-RXR Gal4 reporter transient transfection assay in CV-1 cells; format: cell-based
# T6 construct: expressed in transfected cells; host or cells: CV-1
# T6 sequence (P19793 203-462): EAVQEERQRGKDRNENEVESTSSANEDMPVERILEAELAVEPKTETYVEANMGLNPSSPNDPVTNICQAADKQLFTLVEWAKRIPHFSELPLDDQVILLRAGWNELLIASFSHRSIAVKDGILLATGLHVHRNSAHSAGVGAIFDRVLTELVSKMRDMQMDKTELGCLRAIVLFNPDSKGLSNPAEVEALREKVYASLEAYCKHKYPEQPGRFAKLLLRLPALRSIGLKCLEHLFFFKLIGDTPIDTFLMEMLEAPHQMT
# Description: as §1
# [9] = target: T7, human RARα (Homo sapiens, UniProt P10276); experiment: Nuclear receptor specificity transfection assay; format: cell-based; conditions: 3 μM ritonavir
# T7 construct: expressed in transfected cells; host or cells: CV-1
# [10] = target: T8, mouse PPARγ (Mus musculus, UniProt P37238); experiment: Nuclear receptor specificity transfection assay; format: cell-based; conditions: 3 μM ritonavir
# T8 construct: expressed in transfected cells; host or cells: CV-1
# [11] = target: T9, FXR (Homo sapiens, UniProt Q96RI1); experiment: Nuclear receptor specificity transfection assay; format: cell-based; conditions: 3 μM ritonavir
# T9 construct: expressed in transfected cells; host or cells: CV-1
# [12] = test system: MRP2 mRNA; experiment: Northern analysis of MRP2 expression in primary human hepatocytes; format: cell-based
# Experimental: (§5) Northern Blot Analysis—Primary human hepatocytes were obtained from Clonetics (Walkersville, Md.) and cultured according to the vendors instructions. Cells were treated with the indicated compounds for 24 hours and total RNA was isolated using the Trizol reagent.
# as §4
# (§6) After 24 hour exposure to the compounds, total RNA was prepared and analyzed by northern analysis using probes for MDR1 and the GAPDH control.
# [13] = test system: MDR1 mRNA; experiment: Northern analysis of MDR1 expression in human LS180 cells; format: cell-based; conditions: 3 μM ritonavir, 24 hour
# Experimental: as §2, §5, §6
# [14] = target: human ERα (Homo sapiens, UniProt P03372); conditions: 3 μM ritonavir
# [15] = test system: thyroid hormone receptor β (TRβ); conditions: 3 μM ritonavir
# T8 sequence (P37238 whole entry): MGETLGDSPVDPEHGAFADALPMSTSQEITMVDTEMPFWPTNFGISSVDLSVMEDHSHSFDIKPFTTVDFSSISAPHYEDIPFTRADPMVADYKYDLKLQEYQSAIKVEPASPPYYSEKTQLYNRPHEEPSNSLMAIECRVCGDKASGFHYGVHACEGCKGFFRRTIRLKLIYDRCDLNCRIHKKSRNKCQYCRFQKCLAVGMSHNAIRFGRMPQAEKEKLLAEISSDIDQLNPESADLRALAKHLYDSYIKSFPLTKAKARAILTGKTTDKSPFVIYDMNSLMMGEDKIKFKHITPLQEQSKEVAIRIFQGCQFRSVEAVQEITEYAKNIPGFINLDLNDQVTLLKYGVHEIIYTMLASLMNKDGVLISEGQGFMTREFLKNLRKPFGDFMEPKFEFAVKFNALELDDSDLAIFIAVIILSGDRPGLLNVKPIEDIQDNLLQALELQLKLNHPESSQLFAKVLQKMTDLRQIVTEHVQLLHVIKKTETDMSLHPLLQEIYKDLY
# T7 sequence (P10276 whole entry): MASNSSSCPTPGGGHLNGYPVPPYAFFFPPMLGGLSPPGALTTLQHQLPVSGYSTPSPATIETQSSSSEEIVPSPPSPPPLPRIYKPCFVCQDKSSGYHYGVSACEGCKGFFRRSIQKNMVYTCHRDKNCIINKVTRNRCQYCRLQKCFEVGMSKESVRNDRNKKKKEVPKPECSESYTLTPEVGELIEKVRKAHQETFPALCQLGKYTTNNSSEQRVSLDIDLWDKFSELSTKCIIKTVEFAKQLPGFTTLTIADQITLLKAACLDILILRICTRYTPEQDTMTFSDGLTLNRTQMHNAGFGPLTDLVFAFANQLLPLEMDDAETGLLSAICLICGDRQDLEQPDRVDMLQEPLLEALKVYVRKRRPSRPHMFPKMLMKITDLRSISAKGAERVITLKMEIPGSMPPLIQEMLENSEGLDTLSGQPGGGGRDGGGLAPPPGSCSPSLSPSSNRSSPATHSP
# T9 sequence (Q96RI1 whole entry, species assumed): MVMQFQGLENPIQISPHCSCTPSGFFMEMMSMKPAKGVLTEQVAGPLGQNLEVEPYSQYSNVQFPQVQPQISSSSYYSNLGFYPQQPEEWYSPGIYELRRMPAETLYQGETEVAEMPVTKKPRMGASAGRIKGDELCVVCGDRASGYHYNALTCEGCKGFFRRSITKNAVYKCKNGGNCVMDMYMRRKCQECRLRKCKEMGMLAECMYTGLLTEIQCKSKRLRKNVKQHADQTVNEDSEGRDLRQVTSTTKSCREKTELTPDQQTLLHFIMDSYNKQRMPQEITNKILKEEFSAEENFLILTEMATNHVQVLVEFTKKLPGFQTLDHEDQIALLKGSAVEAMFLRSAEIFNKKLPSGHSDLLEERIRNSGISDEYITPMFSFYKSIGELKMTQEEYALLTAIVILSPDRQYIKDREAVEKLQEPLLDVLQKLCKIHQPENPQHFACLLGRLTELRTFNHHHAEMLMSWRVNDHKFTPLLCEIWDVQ
# Chain of human ERα (P03372 whole entry): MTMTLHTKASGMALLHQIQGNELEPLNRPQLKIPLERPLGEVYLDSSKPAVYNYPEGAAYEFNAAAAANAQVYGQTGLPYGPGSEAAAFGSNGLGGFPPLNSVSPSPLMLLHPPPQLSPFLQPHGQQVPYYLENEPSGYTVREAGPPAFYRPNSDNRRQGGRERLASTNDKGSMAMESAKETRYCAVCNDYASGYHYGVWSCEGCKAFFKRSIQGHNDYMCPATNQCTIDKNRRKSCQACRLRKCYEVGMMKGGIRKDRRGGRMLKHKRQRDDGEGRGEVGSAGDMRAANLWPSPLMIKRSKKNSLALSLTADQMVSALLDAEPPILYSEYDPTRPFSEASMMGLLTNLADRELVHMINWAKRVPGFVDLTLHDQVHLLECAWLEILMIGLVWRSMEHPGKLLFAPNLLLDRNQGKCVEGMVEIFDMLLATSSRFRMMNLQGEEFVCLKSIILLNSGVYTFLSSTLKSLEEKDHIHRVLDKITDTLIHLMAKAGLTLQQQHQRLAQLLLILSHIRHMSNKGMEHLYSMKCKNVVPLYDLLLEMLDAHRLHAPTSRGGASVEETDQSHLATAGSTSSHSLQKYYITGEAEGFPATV
# Chain of mouse PXR (O54915 143-430 limits assumed): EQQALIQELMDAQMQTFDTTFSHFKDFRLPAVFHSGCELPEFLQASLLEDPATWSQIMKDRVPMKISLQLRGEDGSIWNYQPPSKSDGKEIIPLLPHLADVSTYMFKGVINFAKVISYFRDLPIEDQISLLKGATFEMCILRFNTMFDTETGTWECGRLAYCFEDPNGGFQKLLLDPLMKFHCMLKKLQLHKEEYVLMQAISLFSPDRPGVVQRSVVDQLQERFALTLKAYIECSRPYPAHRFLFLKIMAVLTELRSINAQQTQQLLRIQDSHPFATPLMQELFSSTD
compound,measurement,setting,value
CC(=O)[C@H]1[C@H](C#N)C[C@H]2[C@@H]3CC=C4C[C@@H](O)CC[C@]4(C)[C@H]3CC[C@@]21C,activation of Gal-SXR,"[1]; 2.5 μM hyperforin, 10 μM rifampicin, 3 μM ritonavir, 10 μM PCN",not
same,activation of Gal-L-SXR chimeric receptor,[1],not
same,fold activation by cognate ligand (positive control),[2],23 fold
CC(=O)O[C@H]1C(=O)[C@@]2(C)[C@H]([C@H](OC(=O)c3ccccc3)[C@]3(O)C[C@H](OC(=O)[C@H](O)[C@@H](NC(=O)c4ccccc4)c4ccc(O)cc4)C(C)=C1C3(C)C)[C@]1(OC(C)=O)CO[C@@H]1C[C@@H]2O [3′-p-hydroxypaclitaxel],activation of Gal-L-SXR chimeric receptor,[1],No activation
CC(=O)O[C@H]1C(=O)[C@@]2(C)[C@H]([C@H](OC(=O)c3ccccc3)[C@]3(O)C[C@H](OC(=O)[C@H](O)[C@@H](NC(=O)c4ccccc4)c4ccccc4)C(C)=C1C3(C)C)[C@]1(OC(C)=O)CO[C@@H]1[C@@H](O)[C@@H]2O [6α-hydroxypaclitaxel],activation of Gal-L-SXR chimeric receptor,[1],No activation
Cc1cc2c(cc1C1(c3ccc(C(=O)O)cn3)CC1)C(C)(C)CCC2(C)C [LG268],rate of [14C]-paclitaxel efflux versus untreated cells,[3],did not differ from controls
"Cc1cccc(Nc2cc(Cl)nc(SCC(=O)O)n2)c1C [Wy 14,643]",fold activation by cognate ligand (positive control),[4]; 5 μM,13 fold
C[C@@]12CCC[C@H]1[C@@H]1CC[C@H]3C[C@@H](O)CC[C@]3(C)[C@H]1CC2 [androstanol],fold repression by cognate ligand (positive control),[5]; 5 μM,50 fold
same,effect on transcriptional activity of CARβ,"[5]; LXRE×3-TK-luc reporter, 5 μM androstanol or 50 nM ET-743",inhibited
CCCCC[C@H](O)/C=C/[C@@H]1[C@H]2C/C(=C/CCCC(=O)O)C[C@H]2C[C@H]1O [arbaprostacyclin],fold activation by cognate ligand (positive control),[6]; 1 μM,14 fold
COC(=O)CC[C@@H](C)[C@H]1CC[C@H]2[C@@H]3C[C@H](O)[C@@H]4C[C@H](O)CC[C@]4(C)[C@H]3CC[C@]12C [hyodeoxycholic acid methyl ester],fold activation by cognate ligand (positive control),[7]; 30 μM,4.5 fold
CC(C)c1nc(CN(C)C(=O)N[C@H](C(=O)N[C@@H](Cc2ccccc2)C[C@H](O)[C@H](Cc2ccccc2)NC(=O)OCc2cncs2)C(C)C)cs1 [ritonavir],effect on RXRα reporter activity,[8]; 3 μM ritonavir,no effect
same,activation of Gal-RXR,"[8]; ritonavir dose response, same doses as for SXR",failed to activate
same,effect on retinoic acid receptor α reporter activity,[9],no effect
same,effect on LXRα reporter activity,[7]; 3 μM ritonavir,no effect
same,effect on PPARα reporter activity,[4]; 3 μM ritonavir,no effect
same,effect on PPARγ reporter activity,[10],no effect
same,effect on PPARδ reporter activity,[6]; 3 μM ritonavir,no effect
same,effect on CARβ reporter activity,[5]; 3 μM ritonavir,no effect
same,effect on FXR reporter activity,[11],no effect
same,MRP2 mRNA expression,"[12]; primary human hepatocytes, 3 μM ritonavir, 24 hour",activated expression
same,MDR1 mRNA expression,[13],strongly induced
same,effect on estrogen receptor α reporter activity,[14],no effect
same,effect on thyroid hormone receptor β reporter activity,[15],no effect
hyperforin,MRP2 mRNA expression,[12],induced expression
